The record followed here is patent publication EP4745153A1, “GLP-1, GIP AND GCG RECEPTOR […] USE THEREOF” (Jiangsu Hengrui Pharmaceuticals Co., Ltd., priority 2023, dated 2025).

Like-named read-outs stand apart in the source and are kept apart here. Starred links: 1 amine or outer side, 2 acyl side, 3 side chain; linkers in the order of their positions; H or OH if unused. Non-standard residues stand in square brackets, D forms with d. Residues, ends and D or L forms follow the SMILES beside them. Groups on a side chain read outwards from the residue. *: point of attachment. C20 diacid = O=C(O)CCCCCCCCCCCCCCCCCCC(=O)*; γGlu = O=C(O)[C@H](CCC(=O)[*:2])N[*:1]; αMeK = C[C@](N)(CCCCN)C(=O)O; AEEA = NCCOCCOCC(=O)O; Aib = CC(C)(N)C(=O)O

One data set has as its target T1, human GCGR (Homo sapiens, UniProt P47871).
T1 construct: expressed in transfected cells; host or cells: CHO-K1 clonal cell line
Kind of data set: cAMP HTRF agonist activity assay in CHO-K1 cells expressing GCGR. On Activity against human GCGR (EC50 nM): 5% FBS, 0.1% Casein. The class given is cell-based. The protocol:
(§1) Functional activity was determined in CHO-K1 clonal cell lines expressing GIPR, GLP-1R, and GCGR. […] Each recipient cell (5000 cells/well) was added to an SV 96-well plate (Cisbio, 66PL96025) and incubated with the prepared polypeptide at 37°Cfor 30 min. The resulting increase in intracellular cAMP was quantitatively measured using the cAMP-GS dynamic HTRF assay kit (Cisbio, 62AM4PEJ). Briefly, the intracellular cAMP levels were determined by adding cAMP-d2 conjugate in cell lysis buffer, followed by the antibody anti-cAMP-Eu cryptate (also in cell lysis buffer).
(§2) Using the maximum response percentage vs. the added polypeptide concentration, the relative EC50 values were derived through nonlinear regression analysis and fitted to a four-parameter logarithmic equation. For specific data, refer to Tables 7-1 to 7-8 below. […]
(In general: TR-FRET usually uses a lanthanide donor and a delayed reading to cut background.)

In another data set the target is T2, human GIPR (Homo sapiens, UniProt P48546).
T2 construct: expressed in transfected cells; host or cells: CHO-K1 clonal cell line
T2 sequence (P48546 22-466): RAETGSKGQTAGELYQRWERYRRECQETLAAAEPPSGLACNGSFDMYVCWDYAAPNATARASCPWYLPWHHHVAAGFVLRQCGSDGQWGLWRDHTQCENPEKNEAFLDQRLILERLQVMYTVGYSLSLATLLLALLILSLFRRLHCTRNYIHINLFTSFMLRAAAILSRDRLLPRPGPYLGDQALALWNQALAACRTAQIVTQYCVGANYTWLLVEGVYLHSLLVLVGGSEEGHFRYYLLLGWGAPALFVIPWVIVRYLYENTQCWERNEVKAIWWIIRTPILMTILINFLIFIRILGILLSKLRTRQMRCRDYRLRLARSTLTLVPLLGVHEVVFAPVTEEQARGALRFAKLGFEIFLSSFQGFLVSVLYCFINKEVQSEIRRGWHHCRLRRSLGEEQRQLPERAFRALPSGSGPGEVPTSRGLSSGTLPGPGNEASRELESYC
The data set is described as follows: cAMP HTRF agonist activity assay in CHO-K1 cells expressing GIPR. Further: 5% FBS, 0.1% Casein. To be noted: read-out: Activity against human GIPR (EC50 nM). In kind it is cell-based. In outline: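 Clonal CHO-K1 lines, 5000 cells/well, exposed to polypeptides for 30 min at 37°C. Intracellular cAMP read by HTRF (cAMP-d2 conjugate plus anti-cAMP-Eu cryptate in lysis buffer). Relative EC50 from four-parameter nonlinear fit of percent maximum response against concentration.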

The target of another data set is T3, human GLP-1R (Homo sapiens, UniProt P43220).
T3 construct: expressed in transfected cells; host or cells: CHO-K1 clonal cell line
The data set is described as follows: cAMP HTRF agonist activity assay in CHO-K1 cells expressing GLP-1R. On Activity against human GLP-1R (EC50 nM): 5% FBS, 0.1% Casein. The class given is cell-based. The protocol: as §1, §2

The nature of data set [1]: Pharmacokinetics in mice after single intravenous injection. To be noted: mouse, in vivo, male C57 mice, single intravenous dose 200 nmol/kg, plasma; for clearance: read-out: CLp; for half-life: read-out: T1/2 (converted). Also on record: species or system C57 mice. In short, it runs like this: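 Male C57 mice (~25 g, 4-6 weeks, n=3) received a single i.v. dose of 200 nmol/kg in 1×PBS. Plasma collected from 5 min to 72 h was methanol-precipitated with verapamil internal standard and quantified by LC-MS (ESI positive, MRM); PK parameters were calculated by PKSolver.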

Where [2] appears, read: read-out: Activity against human GCGR (EC50 nM).

By EC50 is commonly meant the concentration giving half of the maximal effect. A word on the AUC(0-inf): it is the area under the concentration-time curve extrapolated to infinity. A low value points to less exposure.

T1 sequence (P47871 26-477): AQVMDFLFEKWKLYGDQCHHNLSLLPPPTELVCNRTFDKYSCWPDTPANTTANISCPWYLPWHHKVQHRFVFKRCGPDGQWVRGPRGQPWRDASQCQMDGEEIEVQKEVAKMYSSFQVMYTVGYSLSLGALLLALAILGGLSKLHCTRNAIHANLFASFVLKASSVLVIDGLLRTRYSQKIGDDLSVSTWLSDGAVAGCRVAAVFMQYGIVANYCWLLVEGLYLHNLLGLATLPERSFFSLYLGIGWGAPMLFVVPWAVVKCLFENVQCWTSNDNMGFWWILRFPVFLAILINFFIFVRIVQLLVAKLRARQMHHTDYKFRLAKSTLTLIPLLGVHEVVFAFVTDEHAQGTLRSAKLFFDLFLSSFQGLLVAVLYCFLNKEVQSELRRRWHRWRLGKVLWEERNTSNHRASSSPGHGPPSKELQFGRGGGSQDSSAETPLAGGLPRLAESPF
T3 sequence (P43220 24-463): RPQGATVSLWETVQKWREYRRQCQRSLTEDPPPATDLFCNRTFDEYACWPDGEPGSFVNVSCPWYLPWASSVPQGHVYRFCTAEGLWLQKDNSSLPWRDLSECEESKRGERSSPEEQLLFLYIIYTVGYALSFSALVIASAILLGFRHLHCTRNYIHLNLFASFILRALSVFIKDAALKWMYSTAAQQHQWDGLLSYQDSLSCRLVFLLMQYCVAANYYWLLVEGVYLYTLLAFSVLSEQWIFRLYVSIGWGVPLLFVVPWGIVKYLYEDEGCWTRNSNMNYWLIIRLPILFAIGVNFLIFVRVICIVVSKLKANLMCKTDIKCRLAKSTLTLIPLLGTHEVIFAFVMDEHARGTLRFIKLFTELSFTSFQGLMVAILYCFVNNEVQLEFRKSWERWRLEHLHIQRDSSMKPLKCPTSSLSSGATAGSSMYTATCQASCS

In the case of `CC[C@H](C)[C@H](NC(=O)[C@H](CO)NC(=O)[C@H](Cc1ccc(O)cc1)NC(=O)[C@H](CC(=O)O)NC(=O)[C@H](CO)NC(=O)[C@@H](NC(=O)[C@H](Cc1ccccc1)NC(=O)[C@@H](NC(=O)CNC(=O)[C@H](Cc1c[nH]cn1)NC(=O)C(C)(C)NC(=O)[C@@H](N)Cc1c[nH]cn1)[C@@H](C)O)[C@@H](C)O)C(=O)N[C@@H](CC(C)C)C(=O)N[C@@H](CC(C)C)C(=O)N[C@@H](CCC(=O)O)C(=O)N[C@@H](CCCCNC(=O)COCCOCCNC(=O)COCCOCCNC(=O)CC[C@H](NC(=O)CCCCCCCCCCCCCCCCCCC(=O)O)C(=O)O)C(=O)N[C@@H](CCCCN)C(=O)N[C@@H](C)C(=O)N[C@@H](C)C(=O)NC(C)(CC)C(=O)N[C@@H](CCC(=O)O)C(=O)N[C@@H](Cc1ccccc1)C(=O)N[C@H](C(=O)N[C@@H](CCC(=O)O)C(=O)N[C@@H](Cc1c[nH]c2ccccc12)C(=O)N[C@@H](CC(C)C)C(=O)N[C@@H](CC(C)C)C(=O)N[C@@H](C)C(=O)NCC(=O)NCC(=O)N1CCC[C@H]1C(=O)N[C@@H](CO)C(=O)N[C@@H](CO)C(=O)NCC(=O)N[C@@H](C)C(=O)N1CCC[C@H]1C(=O)N1CCC[C@H]1C(=O)N1CCC[C@H]1C(=O)N[C@@H](CO)C(N)=O)C(C)C` (stereo partly drawn) [Compound 0135], the results for the EC50 at human GCGR (setting [2]), at human GIPR and at human GLP-1R (read-out: Activity against human GLP-1R (EC50 nM)) were 0.019 nM, 0.001 nM and 0.013 nM, respectively.

As to `CC[C@H](C)[C@H](NC(=O)[C@H](CO)NC(=O)[C@H](Cc1ccc(O)cc1)NC(=O)[C@H](CC(=O)O)NC(=O)[C@H](CO)NC(=O)[C@@H](NC(=O)[C@H](Cc1ccccc1)NC(=O)[C@@H](NC(=O)CNC(=O)[C@H](Cc1c[nH]cn1)NC(=O)C(C)(C)NC(=O)[C@@H](N)Cc1c[nH]cn1)[C@@H](C)O)[C@@H](C)O)C(=O)N[C@@H](CC(C)C)C(=O)N[C@@H](CC(C)C)C(=O)N[C@@H](CCC(=O)O)C(=O)N[C@@H](CCCCNC(=O)COCCOCCNC(=O)COCCOCCNC(=O)CC[C@H](NC(=O)CCCCCCCCCCCCCCCCCCC(=O)O)C(=O)O)C(=O)N[C@@H](CCCCN)C(=O)N[C@@H](C)C(=O)N[C@@H](C)C(=O)N[C@@H](CCC(N)=O)C(=O)N[C@@H](CCC(=O)O)C(=O)N[C@@H](Cc1ccccc1)C(=O)N[C@H](C(=O)N[C@@H](CCC(=O)O)C(=O)N[C@@H](Cc1c[nH]c2ccccc12)C(=O)N[C@@H](CC(C)C)C(=O)N[C@@H](CC(C)C)C(=O)N[C@@H](C)C(=O)N[C@H](CCC(=O)O)C(=O)NCC(=O)N1CCC[C@H]1C(=O)N[C@@H](CO)C(=O)N[C@@H](CO)C(=O)NCC(=O)N[C@@H](C)C(=O)N1CCC[C@H]1C(=O)N1CCC[C@H]1C(=O)N1CCC[C@H]1C(=O)N[C@@H](CO)C(N)=O)C(C)C` [Compound 0151], the figures for the EC50 at human GCGR (setting [2]) and at human GIPR were 0.055 nM and 0.004 nM, respectively.

In turn, `CC[C@H](C)[C@H](NC(=O)[C@H](CO)NC(=O)[C@H](CC(C)C)NC(=O)[C@H](CC(=O)O)NC(=O)[C@H](CO)NC(=O)[C@@H](NC(=O)[C@H](Cc1ccccc1)NC(=O)[C@@H](NC(=O)CNC(=O)[C@H](Cc1c[nH]cn1)NC(=O)C(C)(C)NC(=O)[C@@H](N)Cc1c[nH]cn1)[C@@H](C)O)[C@@H](C)O)C(=O)N[C@@](C)(CC(C)C)C(=O)N[C@@H](CC(C)C)C(=O)N[C@@H](CCC(=O)O)C(=O)N[C@@H](CCCCNC(=O)COCCOCCNC(=O)COCCOCCNC(=O)CC[C@H](NC(=O)CCCCCCCCCCCCCCCCCCC(=O)O)C(=O)O)C(=O)N[C@@H](CCCCN)C(=O)N[C@@H](C)C(=O)N[C@@H](C)C(=O)NC(C)(CC)C(=O)N[C@@H](CCC(=O)O)C(=O)N[C@@H](Cc1ccccc1)C(=O)N[C@H](C(=O)N[C@@H](CCC(=O)O)C(=O)N[C@@H](Cc1c[nH]c2ccccc12)C(=O)N[C@@H](CC(C)C)C(=O)N[C@@H](CC(C)C)C(=O)N[C@@H](C)C(=O)NCC(=O)NCC(=O)N1CCC[C@H]1C(=O)N[C@@H](CO)C(=O)N[C@@H](CO)C(=O)NCC(=O)N[C@@H](C)C(=O)N1CCC[C@H]1C(=O)N1CCC[C@H]1C(=O)N1CCC[C@H]1C(=O)N[C@@H](CO)C(N)=O)C(C)C` (stereo partly drawn) [Compound 0138] showed a concentration giving a half-maximal response (EC50) at human GCGR of 0.055 nM. For the same compound, in data set [1], the total exposure AUC(0-inf) amounted to 18.5 µM·h, the C0 worked out at 3.28 µM, the clearance was 0.181 mL/min/kg and the half-life was 8.2 h. At human GLP-1R, this compound registered an EC50 of 0.019 nM.

`CC(C)C[C@H](NC(=O)[C@H](CC(C)C)NC(=O)[C@H](Cc1c[nH]c2ccccc12)NC(=O)[C@H](CCC(=O)O)NC(=O)[C@@H](NC(=O)[C@H](Cc1ccccc1)NC(=O)[C@H](CCC(=O)O)NC(=O)[C@H](CCC(N)=O)NC(=O)[C@H](C)NC(=O)[C@H](C)NC(=O)[C@H](CCCCN)NC(=O)[C@H](CCCCNC(=O)COCCOCCNC(=O)COCCOCCNC(=O)CC[C@H](NC(=O)CCCCCCCCCCCCCCCCCCC(=O)O)C(=O)O)NC(=O)[C@H](CCC(=O)O)NC(=O)[C@H](CC(C)C)NC(=O)[C@H](Cc1ccc(O)cc1)NC(=O)[C@](C)(CCCCN)NC(=O)[C@H](CO)NC(=O)[C@H](Cc1ccc(O)cc1)NC(=O)[C@H](CC(=O)O)NC(=O)[C@H](CO)NC(=O)[C@@H](NC(=O)[C@H](Cc1ccccc1)NC(=O)[C@@H](NC(=O)CNC(=O)[C@H](Cc1c[nH]cn1)NC(=O)C(C)(C)NC(=O)[C@@H](N)Cc1c[nH]cn1)[C@@H](C)O)[C@@H](C)O)C(C)C)C(=O)N[C@@H](C)C(=O)NCC(=O)NCC(=O)N1CCC[C@H]1C(=O)N[C@@H](CO)C(=O)N[C@@H](CO)C(=O)NCC(=O)N[C@@H](C)C(=O)N1CCC[C@H]1C(=O)N1CCC[C@H]1C(=O)N1CCC[C@H]1C(=O)N[C@@H](CO)C(N)=O` [Compound 0104] (H-H[Aib]HGTFTSDYS[αMeK]YLEK([AEEA-AEEA-γGlu-C20 diacid])KAAQEFVEWLLAGGPSSGAPPPS-NH2) yielded a half-maximal effective concentration (EC50) on human GCGR of 0.037 nM. In data set [1], the AUC(0-inf) came to 30.9 µM·h, the C0 amounted to 4.22 µM, the clearance came out at 0.108 mL/min/kg and the half-life was 11.5 h.

For the compound `CC(C)C[C@H](NC(=O)[C@H](CC(C)C)NC(=O)[C@H](Cc1c[nH]c2ccccc12)NC(=O)[C@H](CCC(=O)O)NC(=O)[C@@H](NC(=O)[C@H](Cc1ccccc1)NC(=O)[C@H](CCC(=O)O)NC(=O)[C@H](CCC(N)=O)NC(=O)[C@H](C)NC(=O)[C@H](C)NC(=O)[C@H](CCCCN)NC(=O)[C@H](CCCCNC(=O)COCCOCCNC(=O)COCCOCCNC(=O)CC[C@H](NC(=O)CCCCCCCCCCCCCCCCCCC(=O)O)C(=O)O)NC(=O)[C@H](CCC(=O)O)NC(=O)[C@H](CC(C)C)NC(=O)[C@H](CC(C)C)NC(=O)[C@](C)(CCCCN)NC(=O)[C@H](CO)NC(=O)[C@H](Cc1ccc(O)cc1)NC(=O)[C@H](CC(=O)O)NC(=O)[C@H](CO)NC(=O)[C@@H](NC(=O)[C@H](Cc1ccccc1)NC(=O)[C@@H](NC(=O)CNC(=O)[C@H](Cc1c[nH]cn1)NC(=O)C(C)(C)NC(=O)[C@@H](N)Cc1c[nH]cn1)[C@@H](C)O)[C@@H](C)O)C(C)C)C(=O)N[C@@H](C)C(=O)NCC(=O)NCC(=O)N1CCC[C@H]1C(=O)N[C@@H](CO)C(=O)N[C@@H](CO)C(=O)NCC(=O)N[C@@H](C)C(=O)N1CCC[C@H]1C(=O)N1CCC[C@H]1C(=O)N1CCC[C@H]1C(=O)N[C@@H](CO)C(N)=O` [Compound 0112] (H-H[Aib]HGTFTSDYS[αMeK]LLEK([AEEA-AEEA-γGlu-C20 diacid])KAAQEFVEWLLAGGPSSGAPPPS-NH2), the EC50 worked out at 0.087 nM on human GCGR (setting [2]) and 0.005 nM at human GIPR.
